Results published in patent US9414587B2, “Solubilized magnolol analogs” (Cologne-Palmolive Company, priority 2011, dated 2016).
Blank lines part the entries; values can stand above or below the molecule they belong to.

Type: physicochemical
Text: Each of the sorbitan esters is capable of solubilizing up to 100 g per liter of neat propyl magnolol or butyl magnolol. In certain embodiments, the amount of sorbitan ester is at least 10 times the weight of the propyl magnolol or butyl magnolol in the composition.
Polysorbate 80 is capable of solubilizing up to 50 g per liter of neat isopropyl magnolol or isobutyl magnolol. In certain embodiments, the amount of polysorbate 80 is at least 20 times the weight of the isopropyl magnolol or isobutyl magnolol in the composition. It was surprising that polysorbate 80 was able to solubilize these analogs. Isobutyl magnolol is not soluble in polysorbate 20, polysorbate 40, or polysorbate 85.
Polysorbate 20 is capable of solubilizing up to 100 g per liter of neat isopropyl magnolol. In certain embodiments, the amount of polysorbate 20 is at least 10 times the weight of the isopropyl magnolol in the composition. It was surprising that polysorbate 20 was able to solubilize these analogs. Isopropyl magnolol is only soluble up to 10 g per liter in polysorbate 40 or polysorbate 85.
It was surprising that these sorbitan esters were capable of solubilizing these analogs.

Compound: CCCCc1ccc(O)c(-c2cc(CCCC)ccc2O)c1 [butyl magnolol, 5,5′-di-n-butylbiphenyl-2,2′-diol]
amount of neat analog that the sorbitan ester is capable of solubilizing: up to 100 g per liter

amount of neat analog that polysorbate 80 is capable of solubilizing: up to 50 g per liter
solubility in polysorbate 20 (in words): not soluble
solubility in polysorbate 40 (in words): not soluble
Compound: CC(C)Cc1ccc(O)c(-c2cc(CC(C)C)ccc2O)c1 [isobutyl magnolol, 5,5′-di-isobutylbiphenyl-2,2′-diol]

amount of neat analog that polysorbate 20 is capable of solubilizing: up to 100 g per liter
amount of neat analog that polysorbate 80 is capable of solubilizing: up to 50 g per liter
solubility in polysorbate 40: up to 10 g per liter
solubility in polysorbate 85: up to 10 g per liter
Compound: CC(C)c1ccc(O)c(-c2cc(C(C)C)ccc2O)c1 [isopropyl magnolol, 5,5′-di-isopropylbiphenyl-2,2′-diol]

amount of neat analog that the sorbitan ester is capable of solubilizing: up to 100 g per liter
Compound: CCCc1ccc(O)c(-c2cc(CCC)ccc2O)c1 [propyl magnolol, 5,5′-di-n-propylbiphenyl-2,2′-diol]
